# Assay results reported in patent US12285012B2, “Compositions comprising pyridine carboxylate herbicides with acetolactate synthase (ALS) inhibitor herbicides” (Corteva Agriscience LLC, priority 2018, dated 2025).
# Like-named read-outs stand apart in the source and are kept apart here.
# Legend:
# [1] = system: chickweed (STEME, Stellaria media); assay: Greenhouse postemergence herbicidal effect; format: in vivo
# Procedure: (§1) The plants were grown for 7-36 days (d) in a greenhouse with an approximate 14-hour (h) photo-period which was maintained at about 23° C. during the day and 22° C. during the night. Nutrients and water were added on a regular basis and supplemental lighting was provided with overhead metal halide 1000-Watt lamps as necessary. The plants were employed for testing when they reached the second or third true leaf stage.
# (§2) The emulsifiable concentrates also included a safener, cloquintocet-mexyl, at 120 grams active ingredient per liter (g ai/L), unless otherwise noted below.
# (§3) Control plants were sprayed in the same manner with the solvent blank. All pyridine carboxylate herbicide (component a) application rates are given as “g ae/ha” and all ALS inhibitor (component b) application rates are given as “g ai/ha.”
# (§4) The treated plants and control plants were placed in a greenhouse as described above and watered by sub-irrigation to prevent wash-off of the test compounds. After 20-22 d, the condition of the test plants as compared with that of the control plants was determined visually and scored on a scale of 0 to 100 percent where 0 corresponds to no injury and 100 corresponds to complete kill.
# [2] = system: field violet (VIOAR, Viola arvensis); assay: Greenhouse postemergence herbicidal effect; format: in vivo; conditions: Pyroxsulam 10 g/ha
# Procedure: as §1, §2, §3, §4
# [3] = system: shepherd's purse (CAPBP, Capsella bursa-pastoris); assay: Greenhouse postemergence herbicidal effect; format: in vivo; conditions: Pyroxsulam 10 g/ha
# Procedure: as §1, §2, §3, §4
# [4] = system: wild mustard (SINAR, Sinapis arvensis); assay: Greenhouse postemergence herbicidal effect; format: in vivo
# Procedure: as §1, §2, §3, §4
# [5] = system: Canadian thistle (CIRAR, Cirsium arvense); assay: Greenhouse postemergence herbicidal effect; format: in vivo
# Procedure: as §1, §2, §3, §4
# [6] = system: false chamomile (MATIN, Matricaria inodora); assay: Greenhouse postemergence herbicidal effect; format: in vivo; conditions: Pyroxsulam 10 g/ha
# Procedure: as §1, §2, §3, §4
# [7] = system: R-PAPRH = Papaver rhoeas (corn poppy), herbicide-resistant; assay: Greenhouse postemergence herbicidal effect; format: in vivo; conditions: Pyroxsulam 10 g/ha
# Procedure: as §1, §2, §3, §4
# [8] = system: Russian thistle (SASKR, Salsola kali); assay: Greenhouse postemergence herbicidal effect; format: in vivo
# Procedure: as §1, §2, §3, §4
# [9] = system: ivyleaf speedwell (VERHE, Veronica hederifolia); assay: Greenhouse postemergence herbicidal effect; format: in vivo; conditions: Pyroxsulam 10 g/ha
# Procedure: as §1, §2, §3, §4
# [10] = system: wild buckwheat (POLCO, Polygonum convolvulus); assay: Greenhouse postemergence herbicidal effect; format: in vivo
# Procedure: as §1, §2, §3, §4
# [11] = system: field chamomile (ANTAR, Anthemis arvensis); assay: Greenhouse postemergence herbicidal effect; format: in vivo; conditions: Pyroxsulam 10 g/ha
# Procedure: as §1, §2, §3, §4
# [12] = system: cornflower (CENCY, Cyanus segetum); assay: Greenhouse postemergence herbicidal effect; format: in vivo; conditions: Pyroxsulam 10 g/ha
# Procedure: as §1, §2, §3, §4
# [13] = system: corn poppy (PAPRH, Papaver rhoeas); assay: Greenhouse postemergence herbicidal effect; format: in vivo; conditions: Pyroxsulam 10 g/ha
# Procedure: as §1, §2, §3, §4
# [14] = system: cleavers (GALAP, Galium aparine); assay: Greenhouse postemergence herbicidal effect; format: in vivo; conditions: Pyroxsulam 10 g/ha
# Procedure: as §1, §2, §3, §4
# [15] = system: bird's-eye speedwell (VERPE, Veronica persica); assay: Greenhouse postemergence herbicidal effect; format: in vivo; conditions: Pyroxsulam 10 g/ha
# Procedure: as §1, §2, §3, §4
# [16] = system: winter rape (BRSNW, Brassica napus); assay: Greenhouse postemergence herbicidal effect; format: in vivo
# Procedure: as §1, §2, §3, §4
# [17] = system: wild chamomile (MATCH, Matricaria chamomilla); assay: Greenhouse postemergence herbicidal effect; format: in vivo
# Procedure: as §1, §2, §3, §4
# [18] = system: purple deadnettle (LAMPU, Lamium purpureum); assay: Greenhouse postemergence herbicidal effect; format: in vivo; conditions: Pyroxsulam 10 g/ha
# Procedure: as §1, §2, §3, §4
# [19] = system: pineapple weed (MATMT, Matricaria discoidea); assay: Greenhouse postemergence herbicidal effect; format: in vivo; conditions: Pyroxsulam 10 g/ha
# Procedure: as §1, §2, §3, §4
# [20] = system: pigweed (AMARE, Amaranthus retroflexus); assay: Greenhouse postemergence herbicidal effect; format: in vivo
# Procedure: as §1, §2, §3, §4
# [21] = system: wild pansy (VIOTR, Viola tricolor); assay: Greenhouse postemergence herbicidal effect; format: in vivo
# Procedure: as §1, §2, §3, §4
# winter barley (HORVW) = assay: Greenhouse postemergence crop phytotoxicity; format: in vivo, Hordeum vulgare; conditions: Pyroxsulam 10 g/ha
# Description: (§5) Seeds of the desired test plant species were planted in a 90:10% v/v (volume/volume) mixture of PRO-MIX® BX (Premier Tech Horticulture, Quakertown, PA, USA) and PROFILE® GREENS GRADE™ (Profile Products LLC, Buffalo Grove, IL, USA) planting mixture, which typically has a pH of 5.2 to 6.2 and an organic matter content of at least 50 percent, in plastic pots with a surface area of 103.2 square centimeters (cm^2). In some aspects, to ensure good germination and healthy plants, a fungicide treatment and/or other chemical or physical treatment was applied. The plants were grown for 7-36 days (d) in a greenhouse with an approximate 14-hour (h) photo-period which was maintained at about 23° C. during the day and 22° C. during the night. Nutrients and water were added on a regular basis and supplemental lighting was provided with overhead metal halide 1000-Watt lamps as necessary. The plants were employed for testing when they reached the second or third true leaf stage.
# (§6) Emulsifiable concentrates of each of each pyridine carboxylate herbicide (Compound A or Compound B) were prepared at 100 grams acid equivalent per liter (g ae/L). The emulsifiable concentrates also included a safener, cloquintocet-mexyl, at 120 grams active ingredient per liter (g ai/L), unless otherwise noted below. An aliquot of each emulsifiable concentrate was placed in a 25 mL glass vial and diluted with an aqueous mixture of 1.25% (v/v) ACTIROB® B esterified rapeseed oil (Bayer Crop Science, Research Triangle Park, NC, USA) or MSO® Concentrate with LECI-TECH® methylated soybean oil (Loveland Products, Loveland, CO, USA) to obtain concentrated stock solutions at the highest application rate for each herbicide, based upon a 12 milliliter (mL) application volume at a rate of 187 liters per hectare (L/ha). The concentrated stock solutions were further diluted with an aqueous mixture of 1.25% v/v ACTIROB® B or MSO® Concentrate with LECI-TECH® to obtain stock solutions at reduced application rates for each herbicide. Spray solutions of the herbicide combinations (Compound A or Compound B plus ALS herbicide) were prepared by adding weighed amounts or aliquots of the ALS herbicides to the stock solutions of Compound A or Compound B to form 12-mL spray solutions in two- or three-way combinations. […]
# as §4
# spring barley (HORVS) = format: in vivo, Hordeum vulgare
# Procedure: as §1, §2, §3, §4
# [22] = system: kochia (KCHSC, Kochia scoparia); assay: Greenhouse postemergence herbicidal effect; format: in vivo; conditions: for Obs % visual injury: KCHSC
# Procedure: as §5, with “In some aspects, to ensure good germination and healthy plants, a fungicide treatment and/or other chemical or physical treatment was applied.” left out
# (§7) Emulsifiable concentrates of each of each pyridine carboxylate herbicide (Compound A or Compound B) were prepared at 100 grams acid equivalent per liter (g ae/L). The emulsifiable concentrates also included a safener, cloquintocet-mexyl, at 120 grams active ingredient per liter (g ai/L), unless otherwise noted below. An aliquot of each emulsifiable concentrate was placed in a 25 mL glass vial and diluted with an aqueous mixture of 1.25% (v/v) ACTIROB® B esterified rapeseed oil (Bayer Crop Science, Research Triangle Park, NC, USA) or MSO® Concentrate with LECI-TECH® methylated soybean oil (Loveland Products, Loveland, CO, USA) to obtain concentrated stock solutions at the highest application rate for each herbicide, based upon a 12 milliliter (mL) application volume at a rate of 187 liters per hectare (L/ha). The concentrated stock solutions were further diluted with an aqueous mixture of 1.25% v/v ACTIROB® B or MSO® Concentrate with LECI-TECH® to obtain stock solutions at reduced application rates for each herbicide. Spray solutions of the herbicide combinations (Compound A or Compound B plus ALS herbicide) were prepared by adding weighed amounts or aliquots of the ALS herbicides to the stock solutions of Compound A or Compound B to form 12-mL spray solutions in two- or three-way combinations.
# (§8) The spray solutions were applied to the plant material with an overhead Mandel track sprayer equipped with 8002E nozzles calibrated to deliver 187 L/ha over an application area of 0.503 square meters (m^2) at a spray height of 18 inches (43 centimeters (cm)) above the average plant canopy. Control plants were sprayed in the same manner with the solvent blank. All pyridine carboxylate herbicide (component a) application rates are given as “g ae/ha” and all ALS inhibitor (component b) application rates are given as “g ai/ha.”
# as §4
# [23] = system: common lambsquarters (CHEAL, Chenopodium album L.); assay: Greenhouse postemergence herbicidal effect; format: in vivo
# Procedure: as §5, with “In some aspects, to ensure good germination and healthy plants, a fungicide treatment and/or other chemical or physical treatment was applied.” left out
# as §7, §8, §4
# spring wheat (TRZAS) = format: in vivo, Triticum aestivum; conditions: for Obs % visual injury: TRZAS
# Procedure: as §1, §2, §3, §4
# winter wheat (TRZAW) = assay: Greenhouse postemergence crop phytotoxicity; format: in vivo, Triticum aestivum; conditions: Pyroxsulam 10 g/ha
# Description: as §5, §6, §4
# [24] = system: broad-leaf dock (RUMOB, Rumex obtusifolius); assay: Greenhouse postemergence herbicidal effect; format: in vivo; conditions: RUMOB; Flupyrsulfuron 10 g/ha
# Description: as §5, §7, §8, §4
# [25] = system: large crabgrass (DIGSA, Digitaria sanguinalis); assay: Greenhouse postemergence herbicidal effect; format: in vivo; conditions: DIGSA; Flupyrsulfuron 10 g/ha
# Description: as §5, §7, §8, §4
substance,measurement,setting,value
pyroxsulam,% visual injury,[1]; Pyroxsulam 10 g/ha,100%
same,% visual injury,[2],80%
same,% visual injury,[3],90%
same,% visual injury,[4]; Pyroxsulam 10 g/ha,99%
same,% visual injury Obs,[4]; Pyroxsulam 15 g/ha,73%
same,% visual injury,[5]; Pyroxsulam 10 g/ha,75%
same,% visual injury Obs,[5]; Pyroxsulam 15 g/ha,48%
same,% visual injury,[6],65%
same,% visual injury,[7],10%
same,% visual injury,[8]; Pyroxsulam 10 g/ha,100%
same,% visual injury,[9],70%
same,% visual injury,[10]; Pyroxsulam 10 g/ha,93%
same,% visual injury Obs,[10]; Pyroxsulam 15 g/ha,94%
same,% visual injury,[11],60%
same,% visual injury,[12],70%
same,% visual injury,[13],5%
same,% visual injury,[14],60%
same,% visual injury,[15],75%
same,% visual injury,[16]; Pyroxsulam 10 g/ha,99%
same,% visual injury Obs,[16]; Pyroxsulam 15 g/ha,68%
same,% visual injury,[17]; Pyroxsulam 10 g/ha,60%
same,% visual injury Obs,[17]; Pyroxsulam 15 g/ha,53%
same,% visual injury,[18],50%
same,% visual injury,[19],50%
same,% visual injury Obs,[20]; Pyroxsulam 15 g/ha,98%
same,% visual injury,[21]; Pyroxsulam 10 g/ha,85%
same,% visual injury,winter barley (HORVW),0%
same,% visual injury,spring barley (HORVS); Pyroxsulam 10 g/ha,0%
same,% visual injury Obs,spring barley (HORVS); Pyroxsulam 15 g/ha,0%
same,Obs % visual injury,[22]; Pyroxsulam 15 g/ha,13%
same,% visual injury,[22]; Pyroxsulam 10 g/ha,30%
same,% visual injury Obs,[22]; Pyroxsulam 15 g/ha,55%
same,% visual injury Obs,[23]; Pyroxsulam 15 g/ha,73%
same,% visual injury,spring wheat (TRZAS); Pyroxsulam 10 g/ha,0%
same,% visual injury Obs,spring wheat (TRZAS); Pyroxsulam 15 g/ha,0%
same,Obs % visual injury,spring wheat (TRZAS); Pyroxsulam 15 g/ha,0%
same,% visual injury,winter wheat (TRZAW),0%
flupyrsulfuron,Obs % visual injury,"[1]; STEME, Flupyrsulfuron 10 g/ha",80%
same,Obs % visual injury,"[5]; CIRAR, Flupyrsulfuron 10 g/ha",84%
same,"% visual injury, Obs",[8]; 10 g/ha,45%
same,Obs % visual injury,"[10]; POLCO, Flupyrsulfuron 10 g/ha",91%
same,"% visual injury, Obs",[17]; 10 g/ha,83%
same,Obs % visual injury,"[20]; AMARE, Flupyrsulfuron 10 g/ha",97%
same,Obs % visual injury,"[21]; VIOTR, Flupyrsulfuron 10 g/ha",8%
same,Obs % visual injury,[24],70%
same,Obs % visual injury,[25],0%
same,"% visual injury, Obs",spring barley (HORVS); 10 g/ha,8%
same,"% visual injury, Obs",[22]; 10 g/ha,15%
same,Obs % visual injury,[22]; Flupyrsulfuron 10 g/ha,30%
same,"% visual injury, Obs",[23]; 10 g/ha,75%
same,Obs % visual injury,"[23]; CHEAL, Flupyrsulfuron 10 g/ha",63%
same,"% visual injury, Obs",spring wheat (TRZAS); 10 g/ha,0%
same,Obs % visual injury,spring wheat (TRZAS); Flupyrsulfuron 10 g/ha,15%
